These are literature values, as cited in US20210139999A1, “PROGNOSTIC AND TREATMENT RESPONSE PREDICTIVE METHOD” (Cancer Research Technology Limited, priority 2018, published 2021).

The subject of this series is renal cancer. The following applies: 81 patients with response data, single agent arm.

Take Atezolizumab: the responders is 25%.
